For assay [1], the system named is Nannochloropsis gaditana BioDA. Briefly: BioDA enzyme activity with DMSO or herbicide in vitro. The format is biochemical. An excerpt: (§1) A pet-24 plasmid containing a DNA sequence encoding each identified variant mutant of BIO3-BIO1 derived from Arabidopsis thaliana from example 5 above, as shown in Table 13 below and as shown in full in SEQ ID NOs: 15 to 155, codon-optimised for expression in E. coli, with an N-terminal 6×His-tag and thrombin cleavage site and under control of a T7 promoter, and was synthesised by Twist Bioscience, in a similar manner to SEQ ID NO:311. These plasmids were then expressed in E. coli BL21 (DE3) bioA with 50 μg/mL kanamycin and 25 μg/mL chloramphenicol selection. Overnight cultures grown at 37° C. were used to inoculate 8×500 mL AIM in shake flasks at a ratio of 1:100. Cultures were grown at 37° C., 200 rpm for 3.5 hours and then overnight at 20° C. Cells were harvested by centrifugation for 30 minutes at 10 000 g. Cells were stored at −80° C. until extraction. 30 g of cell pellet from was thawed in 120 mL of IMAC buffer A (20 mM HEPES pH7.5, 25 mM imidazole, 500 mM sodium chloride, 0.15 mM pyridoxal phosphate, 0.5 mM TCEP, 1× complete Protease Inhibitor Tablet (Roche)). The resuspension was passed through a cell disrupter at 18 000 PSI and centrifuged at 50 000 g for 25 minutes at 4° C. The His-tagged BIO3-BIO1 protein was purified from the extract supernatant on an AKTA avant chromatography system (Cytiva) using a HisTrap FF column and eluted in IMAC buffer B ((20 mM HEPES pH7.5, 500 mM imidazole, 500 mM sodium chloride, 0.15 mM pyridoxal phosphate, 0.5 mM TCEP) followed by SEC using a HiLoad 26/60 Superdex200 column in SEC buffer (25 mM HEPES pH7.5, 150 mM sodium chloride, 0.15 mM pyridoxal phosphate, 0.5 mM TCEP). Protein concentration was measured and calculated using the absorbance at 280 nm. Extracts were diluted 1 in 4 and 10 uL was analysed by SDS PAGE.
(§2) To measure BIO3-BIO1 mutant enzyme activity in the presence of herbicide, herbicides were incubated with 20 μL of enzyme mix (100 mM EPPS pH 8.6, 0.1 mM pyridoxal phosphate, 0.1 mg/mL BSA, 50 nM BIO3-BIO1 enzyme) for 10 minutes at 20° C. in a well of a 96-well half-area black plate, followed by the addition of 20 μL of substrate mix (final concentration of 100 mM EPPS pH 8.6, 0.1 mM pyridoxal phosphate, 0.1 mg/mL BSA, 100 μM spermidine, 20 μM KAPA, 100 mM NaCO3) and further incubation for 75 minutes at 20° C. The reaction was terminated by the addition of 50 μL of derivatisation mix (final concentration of 250 mM borate NaOH pH 9.4, 3.6 mM o-phthalaldehyde, 7 mM β-mercaptoethanol, 17% (v/v) ethanol, 3.6% (v/v) methanol). The fluorescent product produced by the reaction of DAPA with o-phthalaldehyde and 7 mM β-mercaptoethanol was measured at 470 nm after excitation at 410 nm. The percentage inhibition was calculated as the activity in the presence of one of three concentrations of each herbicide compound A to M (note that the compounds labelled as A to M are identified hereinabove in the relevant section of the description) as a percentage of the activity in DMSO (Table 12 and 13). The percentage activity versus WT was also calculated and is shown in Table 13 and 14 (NT indicates mutation not tested in table 13, note that these mutations are tested at different compound concentrations for compounds L, M and C, and the results are shown in table 14).
(§3) The activity of various wild-type BioDA and variant enzymes was also tested when treated with DMSO or herbicide in vitro.
(§4) Protein of Schizosaccharomyces japonicus BioDA (SEQ ID NO:13), Nannochloropsis gaditana BioDA (SEQ ID NO:3), Selaginella moellendorffii BioDA (SEQ ID NO:319), Quercus robur BioDA (SEQ ID NOA11), Ostreococcus tauri BioDA (SEQ ID NO:9), and the variants of Ostreococcus tauri BioDA A374D, F332A and P407A (SEQ ID Nos:321-323) was prepared using the method in Example 6. BioDA enzyme activity in the presence of herbicide or DMSO in vitro for each of the proteins was assayed according to the enzyme assay method above. The results are shown in Table 26 provided below in the “TABLES” section.

The next assay relates to Ostreococcus tauri BioDA. The assay is described as above. The assay is classed as biochemical. To be noted: Ostreococcus tauri BioDAΔMTP.
Description: as §1, §2, §3, §4

The test system of a further assay is Quercus robur BioDA. The description is as above. The assay is classed as biochemical. To be noted: Quercus robur BioDAΔMTP.
Description: as §1, §2, §3, §4

The test system of assay [2] is Schizosaccharomyces japonicus BioDA. The description is as above. The assay is classed as biochemical.
Description: as §1, §2, §3, §4

The test system of assay [3] is Selaginella moellendorffii BioDA. The description is as above. The settings on record: Selaginella moellendorcffii BioDAΔMTP. The format is biochemical.
Description: as §1, §2, §3, §4

Assay [4] has as its system Chitinophaga filiformis BioA. Briefly: BioA enzyme activity with DMSO or herbicide in vitro. The assay is classed as biochemical. To be noted: spermidine in substrate mix.
Description: as §1, §2
(§5) Protein of Escherichia coli BioA (SEQ ID NO:159), Pantoea ananatis BioA (SEQ ID NO:167), Streptomyces viridochromogenes BioA (SEQ ID NO:170), Cryptosporidium andersoni BioA (SEQ ID NO:160), Stenotrophomonas maltophilia BioA (SEQ ID NO:171), Chroococcidiopsis BioA (SEQ ID NO:184), Pedobacter hartonius BioA (SEQ ID NO:181), Chitinophaga filiformis BioA (SEQ ID NO:180), Tenacibaculum adriaticum BioA (SEQ ID NO:185) and Bacillus subtilis BioA (SEQ ID NO:166) was prepared using the method in Example 6. BioA enzyme activity in the presence of herbicide or DMSO in vitro for each of the proteins was assayed according to the enzyme assay method in Example 6, except in some reactions spermidine was replaced with 2 mM S-Adenosyl methionine.

The next assay concerns the target T1, Escherichia coli BioA (Escherichia coli, UniProt P12995).
T1 construct: 6xHis-tag (N); thrombin cleavage site (N); made in house; host or cells: E. coli BL21 (DE3) bioA
The assay is described as above. The format is biochemical. To be noted: SAM in substrate mix, read-out: % Inhibition relative to DMSO treatment.
Description: as §1, §2, §5

Assay [5] deals with Pedobacter hartonius BioA. The description is as above. The assay is classed as biochemical. The settings on record: spermidine in substrate mix.
Description: as §1, §2, §5

Assay [6] deals with Stenotrophomonas maltophilia BioA. The description is as above. The assay is classed as biochemical. To be noted: spermidine in substrate mix.
Description: as §1, §2, §5

The subject of another assay is Chroococcidiopsis BioA. The description is as above. The format is biochemical, Chroococcidiopsis sp. CCMEE 29. The settings on record: spermidine in substrate mix.
Description: as §1, §2, §5

This note sets out measurements from patent US20260226493A1, “HERBICIDE RESISTANT PLANTS” (SYNGENTA CROP PROTECTION AG, priority 2023, published 2026).

T1 sequence (P12995 whole entry): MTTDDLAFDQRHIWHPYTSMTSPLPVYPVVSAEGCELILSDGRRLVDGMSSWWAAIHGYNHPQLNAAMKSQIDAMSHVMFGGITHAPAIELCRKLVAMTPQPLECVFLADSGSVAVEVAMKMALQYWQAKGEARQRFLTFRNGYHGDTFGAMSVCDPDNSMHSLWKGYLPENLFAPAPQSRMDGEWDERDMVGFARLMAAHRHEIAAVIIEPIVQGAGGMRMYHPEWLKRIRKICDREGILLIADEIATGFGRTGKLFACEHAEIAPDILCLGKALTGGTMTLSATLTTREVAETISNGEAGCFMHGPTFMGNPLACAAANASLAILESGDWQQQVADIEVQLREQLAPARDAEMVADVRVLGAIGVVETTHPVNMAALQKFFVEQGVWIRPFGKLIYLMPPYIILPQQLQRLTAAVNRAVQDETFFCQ

As to `CCn1c(-c2ccc(Cl)c(Cl)c2)c(C(=O)O)c(=O)c2cc(F)ccc21` [Compound M, 2-(3,4-dichlorophenyl)-1-ethyl-6-fluoro-4-oxo-quinoline-3-carboxylic acid], the “% Inhibition relative to DMSO treatment” value is recorded as 3% in [1] (0.5 μM); 0% in the assay on Ostreococcus tauri BioDA (0.5 μM); 45% with Ostreococcus tauri BioDA (31 μM); 92% in the assay with Ostreococcus tauri BioDA (500 μM); 22% in the assay on Quercus robur BioDA (0.5 μM); 15% in assay [2] (0.5 μM). In addition, the “% Inhibition relative to DMSO treatment” value is 95% in [2] (31 μM); 99% in [2] (500 μM); 0% in assay [3] (0.5 μM); 0% in assay [4] (0.5 μM); 0% in [5] (0.5 μM); 1% in [6] (0.5 μM). In addition, the “% Inhibition relative to DMSO treatment” value in the assay on Chroococcidiopsis BioA (0.5 μM) came out at 10%. The inhibition at 0.5 µM at Escherichia coli BioA (0.5 μM) is 0%.
In the case of `C[C@@H](N)COc1cccc(C(=O)O)n1.Cl.Cl` [Compound E, [(1R)-2-(6-carboxypyridin-1-ium-2-yl)oxy-1-methyl-ethyl]ammonium dichloride], the “% Inhibition relative to DMSO treatment” value in assay [1] (200 μM) is listed as 66%; in the assay on Ostreococcus tauri BioDA (200 μM), 53%; with Quercus robur BioDA (200 μM), 96%; in assay [2] (200 μM), 28%; in [3] (200 μM), 69%; in [4] (200 μM), 28%. Moreover, the “% Inhibition relative to DMSO treatment” value in [5] (200 μM) was found to be 80%; in [6] (200 μM), 74%; with Chroococcidiopsis BioA (200 μM), 26%. Moreover, the inhibition at 200 µM at Escherichia coli BioA (200 μM) was 12%.
